The source of these data is patent US20060041013A1, “Alanosine formulations and methods of use” (priority 2004, published 2006).

Like-named read-outs stand apart in the source and are kept apart here.

The subject of data set [1] is NCI-H322M. The data set is described as follows: Docetaxel, 5-FU, SDX-102 alone or combined, MTT/MTS cytotoxicity (Example 4). As to conditions: Homo sapiens, NSCLC, single agent, MTT 72 hours. The class given is cell-based.
Data set [2] concerns mice. The settings on record: cited from earlier work.
Data set [3] in a line: Cell viability MTT assay (Example 3). Format: cell-based. The settings on record: 72 h; A-594, NSCLC, MTAP Negative; 3 days.
Data set [4] is classed as physicochemical. As to conditions: for Amount degraded/day (%) / Predicted purity after 2 years: Arrhenius analysis. The procedure:
An Arrhenius analysis was performed to predict the loss of potency and increase in degradation products over time for commonly used storage temperatures for many drugs. […] Sets of the different solutions were then placed at 40° C., 50° C., or 60° C., and samples were taken every ten days over a 60 day period. […] Specifically, these plots show a distinct difference in purity as a function of pH and temperature. […] In the pH 7.5 formulation, there was more of each of these four impurities as compared to the pH 8.5 formulation. The impurity at RRT 0.32 formed readily as a function of temperature and pH. The impurities at RRTs 0.43 and 0.46 also formed as a function of temperature and pH, but not as readily.
Indeed, the purity of the samples is similar at pH 8.5 and 9.0. […] The trends in the data shown in FIG. 5 allow an Arrhenius analysis to be performed to predict changes in purity over time at various temperatures, particularly 5° C. and 25° C. Linear regression was used to determine the positions of the lines shown in FIG. 5, which then allowed the slope of the lines (i.e., the reaction rates, per day) to be determined for each pH and a given temperature. Arrhenius plots were the generated for each of pHs 7.5, 8.5 and 9.0 from the reaction rate versus the inverse temperatures. These plots are shown in FIG. 7, which allow the equation of the lines for each of three liquid formulations to be calculated. From these equations, the purity of any given temperature for a particular formulation at a given time can be predicted.
The HPLC system (Waters Corp., model 2690 Gradient HLPC System) employed a 4.6 mm×250 mm column (MetaChem Inc.) containing 5 μm particles (Inertsil ODS-3) as the stationary phase. The system was equipped with a UV/VIS detector (Waters Corp., model 996) set to 226 nm to monitor products being eluted from the column. Data generated from the column was managed on a personal computer running Empower Software (Waters Corp.). After preparation, the column was washed with at least 100 mL of water/acetonitrile (90:10, v/v), and stored at ambient temperature in the same solution.
In each HPLC run, the mobile phase, flowing at 1.0 mL/min., comprised 7.0 g of anhydrous monobasic potassium phosphate (KH2PO4; JT Baker) dissolved in 1000 mL H2O (at least HPLC grade). The pH of the solution was adjusted to 2.5 using phosphoric acid (85%, Fisher Scientific). 2.4 g of 1-decane sulfonic acid, sodium salt (Avocado Research Chemicals) was then mixed into the solution. 50 mL of acetonitrile (HPLC Grade, Burdick & Jackson) was then mixed with 950 mL of this solution. This mixture was then degassed by filtering through Durapore membrane filters, 0.45 μm, Type HVLP, under vacuum. The column flow rate was set at 1.0 mL/min.
Diluent was prepared by dissolving 3.5 g KH2PO4 and 3.5 g (Na2HPO4, Mallincrodt) in 1000 mL of HPLC grade H2O. […] Once prepared, an alanosine standard solution was stored at ambient temperature and retained for no more than seven days.
In addition to an alanosine standard solution, a sensitivity standard was also prepared by diluting 1 mL of the alanosine standard solution 1:100 using diluent.
HPLC runs were performed after the column had equilibrated for at least three hours in the mobile phase at room temperature. Column suitability was assessed at the beginning and end of each series of experiment as follows. Initially, two 10 μL aliquots of diluent were injected onto the column in duplicate, and the chromatographs recorded and examined.

In data set [5] the test system is A-427. The data set is described as follows: Cell viability MTT assay (Example 3). Format: cell-based. The settings on record: Homo sapiens, 72 h; A-427, NSCLC, MTAP Positive; 3 days. In general terms: Tetrazolium assays rely on reduction of a dye to a coloured formazan, in cell work by metabolically active cells.
Data set [6] deals with BX-PC3. The data set can be described thus: Docetaxel, 5-FU, SDX-102 alone or combined, MTT/MTS cytotoxicity (Example 4). The settings on record: Homo sapiens, BXPC-3; BX-PC3, Pancreatic, single agent, MTT 72 hours. Format: cell-based.
Data set [7] concerns A-594. The data set is described as follows: Intracellular ATP levels (Cell-Titer Glow). The settings on record: 72 h; A-594, NSCLC, MTAP Negative; 3 day treatment. Format: cell-based. As to the method:
(§1) MTAP status was determined using immunoblot analyses and correlated with the ability of an MTA analog to rescue ATP levels in cell lines treated with SDX-102. ATP levels were measured using Cell-Titer Glow™ (Promega) after a 3 day treatment with titrated concentrations of either SDX-102 or pemetrexed.

Data set [8] deals with NCI-H2452. The data set can be described thus: Intracellular ATP levels (Cell-Titer Glow). Format: cell-based. As to conditions: Homo sapiens, 72 h; NCI-H2452, Mesothelioma, MTAP Negative; 3 day treatment; read-out: ATP IC50. The procedure: as §1
Data set [9] concerns BxPC3. The data set can be described thus: Intracellular ATP levels (Cell-Titer Glow). Format: cell-based. The settings on record: Homo sapiens, BXPC-3, 72 h; BxPC3, Pancreatic, MTAP Negative; 3 day treatment. The procedure:
as §1

The test system of data set [10] is A549 NSCLC xenografts. The data set can be described thus: MTAP-negative A549 NSCLC xenografts in SCID mice. The class given is in vivo. The settings on record: 60 days monitoring, doses as administered.
The test system of data set [11] is NCI-H292. The data set is described as follows: Docetaxel, 5-FU, SDX-102 alone or combined, MTT/MTS cytotoxicity (Example 4). As to conditions: Homo sapiens; NCI-H292, NSCLC, single agent, MTT 72 hours. The class given is cell-based.
In data set [12] the test system is H-Meso-1. The data set is described as follows: Mesothelioma xenograft model (H-Meso-1) in SCID mice. The class given is in vivo. The settings on record: thirty-one days following treatment; docetaxel 10 mg/kg intraperitoneally daily Mon-Fri, SDX-102 50 mg/kg osmotic pump; start 100 mm^3; control 1272.
Data set [13] concerns A549. The data set can be described thus: Docetaxel, 5-FU, SDX-102 alone or combined, MTT/MTS cytotoxicity (Example 4). The class given is cell-based. The settings on record: Homo sapiens; A549, NSCLC, single agent, MTT 72 hours.
Data set [14] relates to NCI-H2452. The data set can be described thus: Cell viability MTT assay (Example 3). Format: cell-based. The settings on record: Homo sapiens, 72 h; NCI-H2452, Mesothelioma, MTAP Negative; 3 days.

The IC50 is the concentration at which inhibition is half-maximal. By LD50 is commonly meant the dose at which mortality reaches 50%. Take `NC(CN(O)N=O)C(=O)O` [L-alanosine, L(−)-2-amino-3-nitrosohydroxylaminopropionic acid]: the IC50 turned out to be 6 ± 1 µM in data set [1]; 400 nM in data set [3]; 3.3 µM in data set [5]; 3000 ± 1000 nM in data set [6]; 300 nM in data set [7]; 400 nM in data set [8]. The concentration for half-maximal inhibition (IC50) amounted to 600 nM in data set [9], 200 ± 60 nM in data set [11], 300 ± 100 nM in data set [13] and 500 nM in data set [14]. Further, the LD50 in data set [2] (administered intraperitoneally) is 600 mg/kg; in [2] (given intravenously) it was 300 mg/kg. For the same compound, the “Amount degraded/day (%)” value in data set [4] (20 mg/mL, pH 7.5, 5° C.) was found to be 0.000374%; in [4] (20 mg/mL, pH 7.5, 25° C.), 0.000601%. For the same compound, the “Predicted purity after 2 years” value in data set [4] (20 mg/mL, pH 7.5, 5° C.) is reported as 99.727%; in data set [4] (20 mg/mL, pH 7.5, 25° C.), 99.561%; in data set [4] (20 mg/mL, pH 8.5, 5° C.), 99.985%; in [4] (20 mg/mL, pH 8.5, 25° C.) it was 99.930%; in data set [4] (20 mg/mL, pH 9.0, 5° C.), 100.00%; in data set [4] (20 mg/mL, pH 9.0, 25° C.) it was 100.00%. The calculated purity result in data set [4] (20 mg/mL, pH 8.5-9.0, stored at 25° C., at least two years) was “more than 99.9%”. The “trend in purity over 60 days” value in [4] (solutions pH 7.5, 8.5, 9.0 stored at 40° C.) is “no trend in decreased purity”. Also, the tumor growth inhibition entry in [10] is listed as “did not induce tumor growth inhibition”. The mean tumor volume in data set [12] came to 1035 mm^3.
